“Also recorded” adds a separate entry of the source.
Columns and labels:
[1] = Thermal radical initiator screening, DAB decomposition by sonication in BenchMark Reaction Buffer; conditions: for Sonication time after which no DAB monomer was detectable: DAB 68.1 mg/L in BenchMark Reaction Buffer, initiator approx. 0.0882 mmol per 25 mL; for Effect on DAB decomposition with sonication: BenchMark Reaction Buffer
Method: Sonication can form acoustic cavitation in liquids causing the formation, growth and implosive collapse of bubbles and heat generation. Sonication was used to thermally activate thermal radical initiators to induce DAB decomposition. Thermal radical initiator screening experiments were performed using a MisonixSonicator 3000 Ultrasonic Liquid Processor. The sonicator voltage converter and horn were connected to a microtip probe. […] A DAB sample in RTD BenchMark Reaction Buffer (68.1 mg/L) was sonicated with or without the presence of a thermal radical initiator. […] The sonication mixed the sample efficiently.

[2] = Radical initiator screening in DAB UV oxidation (Aquatop 10 W in-line UV sterilizer, BenchMark Reaction Buffer); conditions: for Impact on DAB UV oxidation: 30 min UV exposure, relative to no initiator; for % Loss DAB (30 min UV): DAB 68.1 mg/L in BenchMark Reaction Buffer, initiator approx. 0.882 mmol per 250 mL, 10 W
[3] = DAB UV oxidation in 36 W top-down UV irradiation test bed, Reaction Buffer matrix; format: physicochemical
Method: As shown in FIGS. 9A-9C, a test bed was prepared to investigate top-down UV irradiation systems without direct liquid contact to the UV irradiation source (also referred to as “UV lamp light”). This test bed used two 18 W lamps to irradiate the fluid matrix from above while the liquid meandered through a predetermined path in the metal tray below to control sample exposure time. The UV light sources may be installed adjacently in parallel connection to each other (e.g. UV light array, etc.) to increase the power of the array. Alternatively, the UV light sources may be installed serially to increase exposure time. A second bottom irradiation plastic container was prepared without the pathway. UV light is absorbed as it goes through a liquid medium causing the aqueous layer furthest from the lamp to receive less UV irradiation. This test bed was used to examine liquid layer thickness and waste matrix impurities (i.e. LCS, DAB oxidation products, etc.) impact on DAB UV decomposition rates.
The 36 W top-down UV irradiation test bed without direct sample liquid contact to the UV light source was used to investigate matrix layer thickness tolerance during DAB UV irradiation (FIGS. 9A-9C). UV light is absorbed as it goes through a liquid medium causing the aqueous layer furthest from the lamp to receive less UV irradiation. A DAB sample in Reaction Buffer matrix was prepared at the expected waste concentration with approximately 20% (v/v) LCS. OptiView DAB IHC detection kit DAB chromogen, detection peroxide and inhibitor peroxide reagents were added to BenchMark Reaction Buffer matrix (143 μL each reagent per 250 mL). The 36 W top-down UV irradiation test bed bottom was filled with a specific matrix layer thickness (i.e. 10-, 20- or 30-mm thickness). The DAB sample was treated with UV irradiation without mixing and a sample was removed every 2 minutes to 10 minutes and then every 5 minutes thereafter through 30 minutes. The matrix sample was analyzed by RP UPLC.
The 36 W top-down UV irradiation test bed without direct sample liquid contact to the UV light source was used to investigate how LCS could be tolerated during DAB UV irradiation in a top-down configuration. A DAB sample in Reaction Buffer matrix was prepared at the expected waste concentration with or without approximately 20% (v/v) LCS. OptiView DAB IHC detection kit DAB chromogen, detection peroxide and inhibitor peroxide reagents were added to Reaction Buffer matrix (143 μL each reagent per 250 mL). These Reaction Buffer/LCS mixed matrix was tested with LCS not mixed, mixed by inversion 20× to form an initial bubble LCS emulsion, and vigorously mixed to form an initial opaque LCS emulsion.
The 36 W top-down UV irradiation test bed bottom was filled with a 10 mm volume layer thickness. The DAB sample was treated with UV irradiation without mixing and a sample was removed every 2 minutes to 10 minutes and then every 5 minutes thereafter through 30 minutes. The matrix sample was analyzed by RP UPLC. […] These DAB intermediates remained in solution longer when the opaque white LCS layer was present.

[4] = DAB UV oxidation in in-line UV sterilizers, BenchMark IHC waste matrix; conditions: for UV irradiation time for DAB monomer to decrease to LOD: 55 W
Method: DAB degradation rates were determined using HPLC analysis to monitor DAB concentration change in Milli-Q® deionized (“DDI”) water, BenchMark Reaction Buffer and BenchMark IHC waste matrices. HPLC analyses were performed on a Waters Acquity Ultra Performance Liquid Chromatography (“UPLC”) instrument with photodiode array (“PDA”) detection. Standard reverse phase chromatography was used for UPLC analyses in BenchMark Reaction Buffer and DDI water matrices. Reverse phase HPLC chromatography with ion-pairing was used for DAB analysis in BenchMark waste. DAB samples were analyzed without filtration or dilution.
A SIELC PrimeSep S column 2.1×100 mm (5μ) and 2.1×10 mm guard column HPLC column was used. The eluents were 40% acetonitrile in 50 mM ammonium formate (pH=4.0). The flow rate was 0.2 mL/min, the gradient profile was an isocratic elution, the column temperature was 30° C., and the injection volume was 8 μL. The PDA detection wavelengths were 210 to 499 nm (2.4 nm resolution and 20 pts/sec). The expected retention time (in BenchMark waste) for DAB and 2-HOPyr was 2.56 min and 1.64 min, respectively.
Multiple UV irradiation flow-through systems were used to examine UV promoted DAB oxidation. A commercial in-line UV water sterilizers with preset lamp wattage and UV irradiation chamber geometry, namely, an Aquatop 10 W In-line UV sterilizer (Aquatop p/n: IL10-UV), was used to treat water up to a 211 gallon/hour flow rate. The sterilizer featured an external variable-speed micropump gear pump that controlled fluid flow rates with the assistance of an independent power supply. Samples were irradiated with active mixing, dwell mixing, or no mixing. For in-line UV sterilizers that were used without mixing pumps, inversion mixing was performed to create a uniform sample prior to sampling. Multiple UV sterilizer UV lamp wattages were examined (10, 18 and 55 W). Multiple UV irradiation sources may be installed adjacently with serial connection to each other to increase effluent exposure time.
DAB UV oxidation experiments were performed in the Aquatop 10 W in-line UV sterilizer as above with variable sample matrices (i.e. DDI water versus BenchMark IHC Waste). […] A fresh BenchMark Ultra OptiView DAB with TSA Amp IHC Waste was used for this experiment where the aqueous layer was separated from a majority of the LCS by gravity. The BenchMark IHC Waste still contained some LCS, which was finely dispersed with the BenchMark IHC waste surfactants. Both samples were irradiated by UV light for 75 minutes. The Aquatop in-line sterilizer was inverted (2×) using an air pocket to mix the matrix uniformly prior to sampling. The reaction mixture was analyzed by UPLC every 10 minutes.
DAB UV oxidation experiments were performed within in-line UV water sterilizers with different UV lamp wattages. […] The Aquatop in-line sterilizer was inverted (2×) using an air pocket to mix the matrix uniformly prior to sampling. The reaction mixture was analyzed by UPLC every 10 minutes.

[5] = DAB UV oxidation in in-line UV sterilizer, DDI water matrix; format: physicochemical
Method: A DAB sample in DDI water (68.1 mg/L) was treated with 3% hydrogen peroxide as a radical initiator (1 mL per approx. 225 mL DAB sample). […] Mixing aided the diffusion of the homolytic hydrogen peroxide UV oxidation product (HO·), which oxidized DAB.
The sample was irradiated by UV light (60 to 90 min).

With `CC(C)(C#N)N=NC(C)(C)C#N` [AIBN, azobisisobutyronitrile] the “Sonication time after which no DAB monomer was detectable” value [1] was 25 min, the “Impact on DAB UV oxidation” value [2] was “minimal impact on DAB UV oxidation” and the “% Loss DAB (30 min UV)” value [2] was 64%.

With `Nc1ccc(C(=O)c2ccccc2)cc1` [ABP, 4-amino-benzophenone] the “Impact on DAB UV oxidation” value [2] was “appeared to inhibit DAB oxidation” and the “% Loss DAB (30 min UV)” value [2] was 16%.

In the case of `CC(C#N)(CCC(=O)O)N=NC(C)(C#N)CCC(=O)O` (stereo not shown) [4,4′-azobis(4-cyanovaleric acid)], the “Effect on DAB decomposition with sonication” value (from here on “Effect on DAB decomposition”) [1] is reported as “promoted DAB oxidation with sonication”.

With `CC(=O)OO` [Peracetic Acid, peracetic acid] the Solubility in water was “completely soluble in water”, the “Impact on DAB UV oxidation” value [2] was “decreased the amount of DAB monomer found in solution” and the “% Loss DAB (30 min UV)” value [2] was 73%.

With `CCN(CC)c1ccc(C(=O)c2ccc(N(CC)CC)cc2)cc1` [BDABP, 4,4′-bisdiethylaminobenzophenone] the “Impact on DAB UV oxidation” value [2] was “decreased the amount of DAB monomer found in solution” and the “% Loss DAB (30 min UV)” value [2] was 68%.

For `N.N.O=S(=O)(O)OOS(=O)(=O)O` [APS, ammonium persulfate], the “Sonication time after which no DAB monomer was detectable” value [1] was no more than 5 min, the “% Loss DAB (30 min UV)” value [2] was 100% and the DAB loss ([2]; after 2 minutes exposure to the initiator) was greater than 95%.

With `OO` [Hydrogen Peroxide, hydrogen peroxide] the “Effect on DAB decomposition” value [1] was “failed to show any substantial DAB decomposition”, the Solubility in water was “completely soluble in water” and the “% Loss DAB (30 min UV)” value [2] was 96%.

For `CC(C)(N=NC(C)(C)C(=N)N)C(=N)N` [2,2′-azobis(2-methylpropionatnidine)], the “Effect on DAB decomposition” value [1] was “promoted DAB oxidation with sonication”.

For `Nc1ccc(-c2ccc(N)c(N)c2)cc1N` [DAB, 3,3′-diaminobenzidine], the “UV irradiation time to no DAB intermediates (dimers, trimers)” value ([3]; 10 mm matrix layer thickness) was 15 to 20 min, the “UV irradiation time to no DAB intermediates (dimers, trimers)” value ([3]; 20 mm matrix layer thickness) was 25 min and the “UV irradiation time to no DAB intermediates (dimers, trimers)” value ([3]; 30 mm matrix layer thickness, intermediates still shown) was greater than 30 min. For the same compound, the “UV irradiation time to no DAB intermediates” value ([3]; Reaction Buffer only matrix, 10 mm layer) was 4 to 6 min, the “UV radiation time after which no DAB monomer was detected” value ([3]; all aqueous layer thicknesses (10, 20, 30 mm), approx. 20% (v/v) LCS, no mixing) was 2 to 4 min and the “UV radiation time after which no DAB monomer was detected” value ([3]; all sample matrices (with or without LCS, emulsions), 10 mm layer) was 2 to 4 min. The “UV irradiation time to no DAB intermediates” value ([3]; clear LCS layered matrix, 10 mm layer) was 10 to 15 min, the “UV irradiation time to no DAB intermediates” value ([3]; other LCS emulsion samples, 10 mm layer) was 20 to 25 min and the “Time to DAB monomer at or below HPLC LOD” value ([4]; BenchMark IHC waste, 10 W, 3 mL 3% peroxide per 250 mL) was no more than 30 min. For the same compound, the “UV irradiation time for DAB monomer to decrease below LOD” value ([4]; BenchMark IHC waste, 18 W, 3% hydrogen peroxide 20 mL per approx. 1.5 L) was “Approximately 90 minutes”, the “UV irradiation time for DAB monomer to decrease to LOD” value ([4]; BenchMark IHC waste, 3% hydrogen peroxide 20 mL per approx. 1.5 L) was 30 min and the “DAB monomer still detectable” value ([4]; BenchMark waste, 10 W, 60 minutes UV irradiation, without hydrogen peroxide) was “about 21%”. The “UV irradiation time for DAB monomer to decrease to LOD” value ([4]; both BenchMark IHC waste matrices (with and without LCS emulsion), hydrogen peroxide) was 30 to 40 min, the DAB monomer detected ([5]; 10 W in-line UV sterilizer, 15 minutes of static UV irradiation without any mixing) was “Approximately 34%” and the “DAB monomer still detectable” value ([5]; 10 W, 60 minutes UV irradiation, absence of hydrogen peroxide) was “Approximately 10%”. The “UV irradiation time after which no DAB monomer was detected” value ([5]; 10 W, presence of hydrogen peroxide (1 mL 3% per approx. 225 mL)) was 50 min, the “UV irradiation time after which DAB monomer was not detectable” value ([5]; 55 W UV in-line sterilizer, RP UPLC, data not shown) was 20 to 30 min and the “DAB monomer by UPLC after storage overnight at 10° C.” value ([5]; samples that received only 2 minutes UV irradiation) was “not detected; also recorded: No DAB monomer was detected”. The “DAB monomer still detectable” value ([2]; BenchMark Reaction Buffer, 60 minutes UV irradiation, absence of hydrogen peroxide) was “Approximately 38%” and the DAB monomer detected ([2]; BenchMark Reaction Buffer, 60 minutes of UV irradiation, presence of hydrogen peroxide) was “Less than 5%”.

For `O=C(OOC(=O)c1ccccc1)c1ccccc1` [Benzoyl Peroxide, benzoyl peroxide], the “Sonication time after which no DAB monomer was detectable” value [1] was 5 min, the “Impact on DAB UV oxidation” value [2] was “decreased the amount of DAB monomer found in solution” and the “% Loss DAB (30 min UV)” value [2] was 72%.

In the case of `CC1(C)CCCC(C)(C)N1[O]` [TEMPO], the “Impact on DAB UV oxidation” value [2] is reported as “appeared to inhibit DAB oxidation” and the “% Loss DAB (30 min UV)” value [2] is reported as 45%.

Source: patent publication US12252417B2, “Passive, gravity-driven system for treatment of an effluent in a diagnostic system” (Ventana Medical Systems, Inc., priority 2016, dated 2025)
